Legend:
[1] = system: Arabidopsis WT (Col0), OE At, OE Pa, OE M3 lines; assay: Arabidopsis seed germination test on herbicide-containing 1/2 MS medium; assay type: in vivo, Arabidopsis thaliana; conditions: 2 weeks
Description: In order to evaluate the resistance of different HPPD overexpression lines to herbicides, Arabidopsis seed germination tests were performed on media containing different concentrations of herbicides. T3 generation Arabidopsis seeds and Co10 (WT) seeds were performed steam surface sterilization (concentrated HCl: NaClO=1:5, v/v) for 3 h. Seeds of OE At (OE At #1, OE At #2), OE Pa (OE Pa #1, OE Pa #2), OE M3 (OE M3 #1, OE M3 #2) and Co10 (WT) were dibbled together in ^1/2 MS medium (0.5 x MS salt, 1% sucrose and 0.8% agar) in a 24-well plate, and the medium contained different concentrations (0, 31.25, 62.5, 125, 500 and 2000 nM) of mesotrione (Sigma Aldrich, USA) and sulcotrione (Sigma Aldrich, USA). Then, the plate dibbled seeds was placed in the dark at 4° C. for 3 d, and then transferred to a growth chamber at 22° C. (16 h light/8 h dark) for 2 weeks. Three biological replicates were performed per treatment per species. After 2 weeks, the test results were photographed.

PaHPPD-SDM = PaHPPD-SDM (Pseudomonas aeruginosa, UniProt Q9I576, A156V/E349K/R282S); conditions: higher doses in the range 0-60 of herbicide
Chain of PaHPPD-SDM (Q9I576 whole entry A156V/R282S/E349K): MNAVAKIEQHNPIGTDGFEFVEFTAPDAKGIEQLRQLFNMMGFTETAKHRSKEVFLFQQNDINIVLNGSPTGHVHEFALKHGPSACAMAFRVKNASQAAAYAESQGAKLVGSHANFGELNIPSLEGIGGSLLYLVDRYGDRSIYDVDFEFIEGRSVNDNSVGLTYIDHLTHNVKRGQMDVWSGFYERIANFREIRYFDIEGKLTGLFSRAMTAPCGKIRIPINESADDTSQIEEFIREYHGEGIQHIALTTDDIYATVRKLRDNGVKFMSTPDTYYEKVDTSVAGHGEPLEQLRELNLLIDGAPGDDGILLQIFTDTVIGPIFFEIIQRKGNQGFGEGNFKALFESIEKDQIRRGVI
Description: Specifically, the presence of tyrosine aminotransferase in E. coli DH5a can catalyze the production of p-hydroxyphenylpyruvate (4-HPP) from tyrosine, which is used as a substrate for HPPD to produce homogentisic acid (HGA). After further oxidation and polymerization, a brown substance is produced. The addition of HPPD inhibitors will inhibit this reaction, thereby reducing the production of pigment. Therefore, the gradation of pigment can be used as an inhibition index of HPPD activity. […] Through heterologous expression of HPPD mutant genes from different species in E. coli DH5α, the resistance characteristics of E. coli DH5α-mutated gene to triketone herbicides were analyzed by detecting the absorption value of pigment at 405 nm (FIGS. 2-6, 8 and 9).
The PaHPPD mutants obtained by random mutation was cloned into E. coli cells together with wild-type PaHPPD and AtHPPD for comparation and screening.
The bacteria solution shaking cultured overnight at 37° C. was centrifuged, and 200 μL of supernatant was transferred to a sterile 96-well plate (microplate with high throughput characteristics) using a 200 μL pipette on an ultra-clean workbench. The pigment content was measured with a microtiter plate reader at a wavelength of 405 nm (OD405 nm), and the HPPD activity was evaluated according to the size of the OD value.
Then the obtained PaHPPD-SDM mutant was compared with its parental mutants (PaHPPD-M3, PaHPPD-DS18, and PaHPPD-DS73) to understand their ability of brown pigmentation in the presence of triketone herbicides at different doses (0-60 μM). The calculation formula of HPPD activity (%) is as follows: HPPD activity(%)=(Am/Ac)×100
Wherein Am refers to the average value of the absorbance at a specific herbicide dose, and Ac refers to the average value of the absorbance without the herbicide.

Row | Structure (SMILES) | concentration giving albino death / severely inhibited growth ([1]; OE At (two lines) and WT) | concentration at which seedlings grow normally ([1]; OE Pa (two lines), T3 seeds) | resistance by HPPD activity (%) compared with WT, PaHPPD-M3, PaHPPD-DS18 and PaHPPD-DS73 (PaHPPD-SDM)
1 | CS(=O)(=O)c1ccc(C(=O)C2C(=O)CCCC2=O)c(Cl)c1 [sulcotrione] | 31.25 nM | 62.5 nM | improved the resistance
2 | CS(=O)(=O)c1ccc(C(=O)C2C(=O)CCCC2=O)c(Cl)c1COCC(F)(F)F [tembotrion] | – | – | improved the resistance
